Read-outs that look alike come from different tables or passages of the source. Blank lines part the entries; values can stand above or below the compound they belong to.
How the values were obtained:
[1] = system: GBM-F; assay: cell killing, GBM-F patient-derived GBM CSC line; assay type: cell-based, human; settings: for IC50: read-out: GBM-F IC50
[2] = system: GBM-A; assay: cell killing, GBM-A patient-derived GBM CSC line; assay type: cell-based, human; settings: for IC50: read-out: GBM-A IC50
[3] = biological target: T1, recombinant human full-length RIPK2 (Homo sapiens, UniProt O43353); settings: read-out: apparent Kd for RIPK2; cited from earlier work
[4] = system: Survivin; assay: Western blot of survivin in HT-1080 cells after shRNA RIPK2 knockdown; assay type: cell-based; settings: 24 hours
[5] = system: IκBα phosphorylation; assay: IκBα phosphorylation after NOD2 stimulation with L-18 MDP; assay type: cell-based; settings: U87EGFRvIII cells, pretreatment 100nM, L-18 MDP stimulation
[6] = brain tissue distribution pharmacokinetic study; settings: 10 mg/kg, P.O., CD-1 mice
[7] = system: U118MG; assay: cytotoxicity in hypo-MGMT methylated cell line; assay type: cell-based; settings: read-out: U118MG IC50
[8] = system: U87-EGFRvIII cells; assay: Cell-titer glo cell viability in U87-EGFRvIII cells after shRNA knockdown; assay type: cell-based; settings: for IC50: read-out: 24-hour IC50 value; for cell viability on loss of RIPK2 / sensitivity following shRNA-mediated RIPK1 knockdown: U87-EGFRvIII; for cell viability on loss of RIPK2: RIPK2 shRNA vs control, YM155 20 nM, aYM155 160 nM; for sensitivity following shRNA-mediated RIPK1 knockdown: induced tumor cell death
[9] = biological target: T1, recombinant human full-length RIPK2; assay: in vitro competitive binding, UV-dependent labeling of RIPK2 by cRIPGBM-PAP
[10] = system: HT-1080 fibrosarcoma cells; assay: cytotoxicity in HT-1080 fibrosarcoma cells; assay type: cell-based; settings: Homo sapiens, HT-1080, read-out: HT-1080 IC50
[11] = system: WA09 human ES cell-derived neural progenitor cells (NPC); assay: cytotoxicity in control neural progenitor cells; assay type: cell-based; settings: for IC50: read-out: NPC IC50
[12] = system: HT-1080 cells; assay: Cell-titer glo cell viability in HT-1080 cells after shRNA RIPK2 knockdown; assay type: cell-based; settings: HT-1080, RIPK2 shRNA vs control, 24 hours; YM155 4 nM, aYM155 40 nM
[13] = system: Casp-1; assay: Casp-1 activation in cells; assay type: cell-based; settings: HT-1080, EGFRvIII amplified U87MG cells and GBM CSCs
[14] = system: Survivin; assay: Western blot of survivin in U87-EGFRvIII cells after shRNA RIPK2 knockdown; assay type: cell-based; settings: U87MG stably expressing EGFRvIII, 100 nM, 24 hours
[15] = system: Casp-3/7; assay: Caspase-Glo 3/7 assay in HT-1080 cells; assay type: cell-based; settings: for Casp3/7 activation on SLC35F2 shRNA knockdown: HT-1080; for Casp-3/7 activation in RIPK2 shRNA knockdown cells vs non-targeting control: HT-1080, 8 hours; for Casp-3/7 activation: HT-1080, 8 hours of treatment
[16] = system: primary human astrocytes (HA); assay: cytotoxicity in control primary human astrocytes; assay type: cell-based; settings: for IC50: read-out: HA IC50
[17] = system: control neural cell types; assay: cytotoxicity in control neural cell types; assay type: cell-based, human; settings: read-out: IC50 in control neural cell types
[18] = system: LN229; assay: cytotoxicity in hyper-MGMT methylated cell line; assay type: cell-based
[19] = system: primary human lung fibroblasts (HLF); assay: cytotoxicity in control primary human lung fibroblasts; assay type: cell-based; settings: read-out: HLF IC50
[20] = system: U87EGFRvIII intracranial xenografts; assay: orthotopic intracranial GBM xenograft, tumor growth by FMT; assay type: in vivo, athymic nude mice; settings: oral, 5mg/kg and 15 mg/kg, B.I.D.
[21] = system: GBM CSCs and non-diseased cells; assay: MS-based metabolite identification of aYM155 activation in cells; assay type: cell-based, human; settings: 100 nM, 24 hours
[22] = system: survivin mRNA; assay type: in vivo, athymic nude mice; settings: 1 hour after last dose of 9-day regimen
[23] = biological target: hERG channel (Homo sapiens, UniProt Q12809); assay: hERG channel inhibition assay; assay type: biochemical; settings: at 3 μM, highest tested concentration
[24] = two-week mouse tolerability study; assay type: in vivo; settings: oral, 1.0 and 5.0 mg/kg B.I.D., two weeks, naïve animals

T1 sequence (O43353 whole entry): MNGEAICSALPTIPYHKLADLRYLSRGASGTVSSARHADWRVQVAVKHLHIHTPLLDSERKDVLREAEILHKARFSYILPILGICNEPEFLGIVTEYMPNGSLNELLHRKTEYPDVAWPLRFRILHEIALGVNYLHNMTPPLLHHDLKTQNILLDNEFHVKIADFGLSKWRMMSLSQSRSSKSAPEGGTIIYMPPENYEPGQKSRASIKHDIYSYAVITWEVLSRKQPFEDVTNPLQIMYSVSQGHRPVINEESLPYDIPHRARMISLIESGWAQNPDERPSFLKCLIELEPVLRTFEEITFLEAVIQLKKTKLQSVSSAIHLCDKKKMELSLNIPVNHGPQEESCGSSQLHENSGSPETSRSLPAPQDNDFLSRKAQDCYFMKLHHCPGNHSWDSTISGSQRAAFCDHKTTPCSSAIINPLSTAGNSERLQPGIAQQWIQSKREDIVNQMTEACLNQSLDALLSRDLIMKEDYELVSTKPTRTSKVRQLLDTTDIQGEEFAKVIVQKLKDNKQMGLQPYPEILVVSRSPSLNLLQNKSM
Sequence of hERG channel (Q12809 whole entry): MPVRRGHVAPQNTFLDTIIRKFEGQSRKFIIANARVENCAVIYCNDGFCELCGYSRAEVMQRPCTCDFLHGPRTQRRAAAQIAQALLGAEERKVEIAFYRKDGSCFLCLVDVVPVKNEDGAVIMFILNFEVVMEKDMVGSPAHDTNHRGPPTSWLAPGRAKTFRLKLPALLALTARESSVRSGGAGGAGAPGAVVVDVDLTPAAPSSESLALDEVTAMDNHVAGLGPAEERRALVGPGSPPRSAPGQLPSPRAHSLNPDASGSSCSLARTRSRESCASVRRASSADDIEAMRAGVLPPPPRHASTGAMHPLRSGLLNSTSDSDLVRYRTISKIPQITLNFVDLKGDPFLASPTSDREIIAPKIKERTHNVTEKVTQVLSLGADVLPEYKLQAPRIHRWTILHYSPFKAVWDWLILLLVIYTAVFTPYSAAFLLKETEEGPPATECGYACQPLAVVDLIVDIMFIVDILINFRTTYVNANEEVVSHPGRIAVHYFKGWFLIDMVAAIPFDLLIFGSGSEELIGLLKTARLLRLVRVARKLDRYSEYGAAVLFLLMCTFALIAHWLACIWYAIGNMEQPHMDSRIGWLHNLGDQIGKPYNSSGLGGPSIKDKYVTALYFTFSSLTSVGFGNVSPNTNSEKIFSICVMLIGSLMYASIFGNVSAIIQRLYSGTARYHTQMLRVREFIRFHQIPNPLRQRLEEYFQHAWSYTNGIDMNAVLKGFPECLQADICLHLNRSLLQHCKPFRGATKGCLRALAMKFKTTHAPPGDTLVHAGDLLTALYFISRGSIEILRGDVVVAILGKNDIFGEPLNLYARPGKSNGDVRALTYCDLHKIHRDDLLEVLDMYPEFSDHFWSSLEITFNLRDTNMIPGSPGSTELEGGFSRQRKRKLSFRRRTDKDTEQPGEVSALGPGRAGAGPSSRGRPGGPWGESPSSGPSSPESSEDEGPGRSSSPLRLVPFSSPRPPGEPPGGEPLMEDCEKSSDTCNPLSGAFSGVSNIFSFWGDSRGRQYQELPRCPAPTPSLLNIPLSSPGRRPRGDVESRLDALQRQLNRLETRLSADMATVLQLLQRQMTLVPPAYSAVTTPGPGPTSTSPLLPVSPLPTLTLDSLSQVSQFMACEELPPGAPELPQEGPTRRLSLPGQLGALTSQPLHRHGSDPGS

Structure (SMILES): Cc1n(Cc2ccc(F)cc2)c2c([n+]1Cc1ccccc1)C(=O)c1ccccc1C2=O [cRIPGBM]
IC50 ([1]; cell killing): 70 nM
IC50 ([2]; cell killing, 72 hours): 27 nM

Structure (SMILES): Cc1n(Cc2ccc(N=[N+]=[N-])cc2)c2c([n+]1CCOCCOCCNC(=O)CCCC[C@@H]1SC[C@@H]3NC(=O)N[C@@H]31)C(=O)c1ccccc1C2=O [cRIPGBM-PAP]
Kd [3]: 2300 nM

Structure (SMILES): CC(=O)N(Cc1ccc(F)cc1)C1=C(NCc2ccccc2)C(=O)c2ccccc2C1=O [RIPGBM]
IC50 ([1]; cell killing): 400 nM
IC50 ([2]; cell killing, 72 hours): 200 nM

IC50 ([8]; 24 h): 20 nM
potency of inhibition of cRIPGBM-PAP RIPK2 labeling relative to cRIPGBM [9]: ~ 10 fold
inhibition of UV-dependent covalent labeling of RIPK2 by cRIPGBM-PAP ([9]; cRIPGBM-PAP 1 μM, at concentrations as low as 30nM): at least 50%
Structure (SMILES): COCCn1c2c([n+](Cc3cnccn3)c1C)C(=O)c1ccccc1C2=O [YM155, sepantronium bromide]
IC50 ([1]; Homo sapiens, 72 h): 0.78 nM
concentration required to significantly impact survivin protein levels ([4]; HT-1080 RIPK2 shRNA cells): 100 nM
concentration giving significant reduction of survivin protein levels ([4]; HT-1080 non-targeting shRNA control cells): 10 nM
IKK activation (IκBα phosphorylation) [5]: reduced IKK activation
IC50 ([2]; Homo sapiens, 72 h): 4.5 nM
brain exposure [6]: no brain exposure above limits of quantification
IC50 ([7]; Homo sapiens, U-118-MG): 3.7 nM
cell viability on loss of RIPK2 ([8]; 24 hours): significant rescue of cell viability
sensitivity following shRNA-mediated RIPK1 knockdown [8]: No significant differences in sensitivity
IC50 [10]: 3.1 nM
IC50 ([11]; Homo sapiens, 72 h): 5 nM
cell viability on loss of RIPK2 [12]: significant rescue of cell viability
Casp-1 activation [13]: time dependent activation of Casp-1
survivin expression on RIPK2 knockdown [14]: significant rescue of survivin expression
Casp3/7 activation on SLC35F2 shRNA knockdown [15]: ablated
Casp-3/7 activation in RIPK2 shRNA knockdown cells vs non-targeting control [15]: significantly reduced
Casp-3/7 activation [15]: Casp-3/7 activation was observed
IC50 ([16]; Homo sapiens, Astrocyte, 72 h): 5.1 nM
IC50 ([17]; Homo sapiens): 5 nM
IC50 ([18]; Homo sapiens, LN-229, read-out: LN229 IC50): 2.8 nM
IC50 ([19]; Homo sapiens, Fibroblast): 92 nM

Structure (SMILES): COCCN(C(C)=O)C1=C(NCc2cnccn2)C(=O)c2ccccc2C1=O [aYM155]
potency compared to YM155 ([1]; GBM-F): ~ equivalent
IC50 ([1]; cell killing, 72 hours): 0.65 nM
fold less potent compared to YM155 ([2]; GBM-A): 2.2 fold
IC50 ([2]; cell killing, 72 hours): 10 nM
brain Cmax [6]: 32 nM
brain/plasma concentration ratio [6]: 0.56
IC50 ([7]; hypo-MGMT methylated): 11 nM
tumor growth by FMT imaging [20]: significant inhibition of tumor growth
rates of conversion to YM155 in GBM CSC populations compared to non-transformed control cell types [21]: significantly higher
cell viability on loss of RIPK2 ([8]; 24 hours): significant rescue of cell viability
sensitivity following shRNA-mediated RIPK1 knockdown [8]: No significant differences in sensitivity
IC50 ([8]; U87-EGFRvIII cells, 24 hours): 160 nM
survivin expression levels in human tumor tissue ([22]; 5 and 15 mg/kg B.I.D.): significantly decrease survivin expression levels
survivin expression in normal brain tissue [22]: no effect
hERG channel inhibition [23]: < 20%
fold less potent compared to YM155 ([11]; NPC): 19 fold
IC50 ([11]; control cell type, 72 hours): 97 nM
cell viability on loss of RIPK2 [12]: significant rescue of cell viability
tolerability (weight loss and behavioral observations) [24]: well tolerated
Casp3/7 activation on SLC35F2 shRNA knockdown [15]: ablated
Casp-3/7 activation in RIPK2 shRNA knockdown cells vs non-targeting control [15]: significantly reduced
Casp-3/7 activation [15]: Casp-3/7 activation was observed
fold less potent compared to YM155 ([16]; HA): 12 fold
IC50 ([16]; control cell type, 72 hours): 62 nM
IC50 ([17]; HA and NPC): 62 to 97 nM
IC50 ([18]; read-out: LN229 IC50, hyper-MGMT methylated): 12 nM
IC50 ([19]; control cell type): 2000 nM
